We go through 8 compounds from patent US8088769B2, “Cyanopyrimidinones” (Boehringer Ingelheim International GmbH, priority 2004, dated 2012).

As a reminder, the IC50 is the midpoint of a concentration-inhibition curve.

Some results are limits rather than exact numbers.

One test addresses T1, PDE3B (Homo sapiens, UniProt Q13370).
T1 construct: made in house; host or cells: Sf9 (baculovirus, pFASTBAC)
Description: PDE inhibition, recombinant PDE3B (SPA). Conditions: human isoenzyme. Type of test: biochemical. From the text:
(§1) Recombinant PDE1C (GenBank/EMBL Accession Number: NM_005020, Loughney et al. J. Biol. Chem. 1996 271, 796-806), PDE2A (GenBank/EMBL Accession Number: NM_002599, Rosman et al. Gene 1997 191, 89-95), PDE3B (GenBank/EMBL Accession Number: NM_000922, Miki et al. Genomics 1996, 36, 476-485), PDE4B (GenBank/EMBL Accession Number: NM_002600, Obernolte et al. Gene. 1993, 129, 239-247), PDE5A (GenBank/EMBL Accession Number: NM_001083, Loughney et al. Gene 1998, 216, 139-147), PDE7B (GenBank/EMBL Accession Number: NM_018945, Hetman et al. Proc. Natl. Acad. Sci. U.S.A. 2000, 97, 472-476), PDE8A (GenBank/EMBL Accession Number: AF—056490, Fisher et al. Biochem. Biophys. Res. Commun. 1998, 246, 570-577), PDE9A (Fisher et al., J. Biol. Chem., 1998, 273 (25): 15559-15564), PDE10A (GenBank/EMBL Accession Number: NM_06661, Fujishige et al. J Biol Chem. 1999, 274, 18438-45), PDE11A (GenBank/EMBL Accession Number: NM_016953, Fawcett et al. Proc. Natl. Acad. Sci. 2000, 97, 3702-3707) were expressed in Sf9 cells with the aid of the pFASTBAC baculovirus expression system (GibcoBRL).
(§2) The test substances are dissolved in 100% DMSO and serially diluted to determine their in vitro effect on PDE9A. Typically, serial dilutions from 200 μM to 1.6 μM are prepared (resulting final concentrations in the assay: 4 μM to 0.032 μM). 2 μl portions of the diluted substance solutions are introduced into the wells of microtitre plates (Isoplate; Wallac Inc., Atlanta, Ga.). Then 50 μl of a dilution of the PDE9A preparation described above are added. […] The plates are then measured for 30 s per well in a Microbeta scintillation counter (Wallac Inc., Atlanta, Ga.). IC50 values are determined from the graphical plot of the substance concentration versus the percentage inhibition.
(§3) The in vitro effect of test substances on recombinant PDE3B, PDE4B, PDE7B, PDE8A, PDE10A and PDE11A is determined by the assay protocol described above for PDE9A with the following adaptations: the substrate used is [5′,8-^3H]adenosine 3′,5′-cyclic phosphate (1 μCi/μl; Amersham Pharmacia Biotech., Piscataway, N.J.). […]

For the next test, the target named is T2, PDE10A (Homo sapiens, UniProt Q9Y233).
T2 construct: made in house; host or cells: Sf9 (baculovirus, pFASTBAC)
T2 sequence (Q9Y233 1-779 isoform Q9Y233-1): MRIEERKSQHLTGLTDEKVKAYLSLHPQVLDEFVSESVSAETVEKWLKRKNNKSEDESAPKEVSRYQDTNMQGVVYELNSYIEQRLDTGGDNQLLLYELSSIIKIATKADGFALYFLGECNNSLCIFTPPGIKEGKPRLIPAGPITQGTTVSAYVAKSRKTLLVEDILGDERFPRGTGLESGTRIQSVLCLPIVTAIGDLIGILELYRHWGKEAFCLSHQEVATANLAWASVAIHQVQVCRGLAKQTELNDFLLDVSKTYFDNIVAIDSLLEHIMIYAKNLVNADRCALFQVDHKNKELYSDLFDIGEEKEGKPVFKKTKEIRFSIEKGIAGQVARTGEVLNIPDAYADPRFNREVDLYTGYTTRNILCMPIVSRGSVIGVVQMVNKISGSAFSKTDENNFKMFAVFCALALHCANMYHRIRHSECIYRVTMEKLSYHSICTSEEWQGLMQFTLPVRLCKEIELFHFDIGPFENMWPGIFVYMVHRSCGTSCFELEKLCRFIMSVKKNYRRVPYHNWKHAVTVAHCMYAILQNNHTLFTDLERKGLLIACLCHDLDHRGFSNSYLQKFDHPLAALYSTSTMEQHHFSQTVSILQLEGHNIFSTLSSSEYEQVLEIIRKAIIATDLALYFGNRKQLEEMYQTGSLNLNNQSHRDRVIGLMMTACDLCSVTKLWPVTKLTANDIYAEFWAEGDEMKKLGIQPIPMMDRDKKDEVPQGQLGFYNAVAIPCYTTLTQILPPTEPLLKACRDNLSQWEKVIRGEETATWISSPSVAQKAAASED
Kind of test: PDE inhibition, recombinant PDE10A (SPA). Type of test: biochemical. The note with it: human isoenzyme.
From the text: as §1, §2, §3

The next test deals with T3, PDE11A (Homo sapiens, UniProt Q9HCR9).
T3 construct: made in house; host or cells: Sf9 (baculovirus, pFASTBAC)
T3 sequence (Q9HCR9 445-933 limits assumed): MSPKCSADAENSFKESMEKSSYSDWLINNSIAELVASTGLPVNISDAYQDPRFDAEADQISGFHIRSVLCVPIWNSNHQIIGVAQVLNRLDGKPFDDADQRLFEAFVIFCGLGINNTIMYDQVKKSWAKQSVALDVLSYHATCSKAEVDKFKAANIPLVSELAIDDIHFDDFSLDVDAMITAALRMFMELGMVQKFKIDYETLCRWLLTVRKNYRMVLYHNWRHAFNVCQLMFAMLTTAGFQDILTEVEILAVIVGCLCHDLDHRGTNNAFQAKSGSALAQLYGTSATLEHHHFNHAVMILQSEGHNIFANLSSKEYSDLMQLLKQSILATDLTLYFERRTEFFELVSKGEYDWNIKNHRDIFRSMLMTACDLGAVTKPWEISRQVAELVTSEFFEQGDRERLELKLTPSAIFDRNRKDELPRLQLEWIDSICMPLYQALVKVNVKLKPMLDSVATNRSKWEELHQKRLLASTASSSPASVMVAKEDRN
Kind of test: PDE inhibition, recombinant PDE11A (SPA). Type of test: biochemical. The note with it: human isoenzyme, read-out: IC50 PDE11.
From the text: as §1, §2, §3

The target of a further test is T4, PDE2A (Homo sapiens, UniProt O00408).
T4 construct: made in house; host or cells: Sf9 (baculovirus, pFASTBAC)
T4 sequence (O00408 whole entry): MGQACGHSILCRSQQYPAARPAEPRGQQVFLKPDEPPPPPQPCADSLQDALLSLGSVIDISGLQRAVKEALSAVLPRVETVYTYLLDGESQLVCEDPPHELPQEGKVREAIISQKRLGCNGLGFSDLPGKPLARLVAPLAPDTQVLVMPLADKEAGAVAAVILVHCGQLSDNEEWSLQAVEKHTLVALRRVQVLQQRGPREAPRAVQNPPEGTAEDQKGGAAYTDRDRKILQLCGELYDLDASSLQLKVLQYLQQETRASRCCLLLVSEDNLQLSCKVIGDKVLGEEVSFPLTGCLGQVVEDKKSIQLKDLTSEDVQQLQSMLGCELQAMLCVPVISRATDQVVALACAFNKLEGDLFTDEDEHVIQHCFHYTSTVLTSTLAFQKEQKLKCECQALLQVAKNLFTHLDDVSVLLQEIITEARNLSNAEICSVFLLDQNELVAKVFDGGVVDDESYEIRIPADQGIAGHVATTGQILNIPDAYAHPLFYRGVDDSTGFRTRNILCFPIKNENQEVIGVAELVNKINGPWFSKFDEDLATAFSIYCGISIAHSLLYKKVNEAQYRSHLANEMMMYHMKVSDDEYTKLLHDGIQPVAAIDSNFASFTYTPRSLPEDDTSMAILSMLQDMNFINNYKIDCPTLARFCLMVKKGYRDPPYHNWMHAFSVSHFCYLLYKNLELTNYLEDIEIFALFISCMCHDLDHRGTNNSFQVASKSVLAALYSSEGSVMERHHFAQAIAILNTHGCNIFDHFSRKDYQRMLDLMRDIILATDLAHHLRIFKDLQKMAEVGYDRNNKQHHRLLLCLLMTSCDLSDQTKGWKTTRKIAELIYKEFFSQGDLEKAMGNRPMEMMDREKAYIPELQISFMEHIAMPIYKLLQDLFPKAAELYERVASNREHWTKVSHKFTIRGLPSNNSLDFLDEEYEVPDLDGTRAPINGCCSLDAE
Description: PDE inhibition, recombinant PDE2A (SPA). Type of test: biochemical. The note with it: human isoenzyme.
From the text: as §1, §2, §3

Another test addresses PDE4B (Homo sapiens, UniProt Q07343). Description: PDE inhibition, recombinant PDE4B (SPA). In kind it is biochemical. Conditions: human isoenzyme.
From the text: as §1, §2, §3

The target in a further test is T5, PDE1C (Homo sapiens, UniProt Q14123).
T5 construct: made in house; host or cells: Sf9 (baculovirus, pFASTBAC)
Kind of test: PDE inhibition, recombinant PDE1C (SPA). Type of test: biochemical. Conditions: human isoenzyme.
From the text: as §1, §2, §3

In a further test the target is T6, PDE7B (Homo sapiens, UniProt Q9NP56).
T6 construct: made in house; host or cells: Sf9 (baculovirus, pFASTBAC)
T6 sequence (Q9NP56 whole entry): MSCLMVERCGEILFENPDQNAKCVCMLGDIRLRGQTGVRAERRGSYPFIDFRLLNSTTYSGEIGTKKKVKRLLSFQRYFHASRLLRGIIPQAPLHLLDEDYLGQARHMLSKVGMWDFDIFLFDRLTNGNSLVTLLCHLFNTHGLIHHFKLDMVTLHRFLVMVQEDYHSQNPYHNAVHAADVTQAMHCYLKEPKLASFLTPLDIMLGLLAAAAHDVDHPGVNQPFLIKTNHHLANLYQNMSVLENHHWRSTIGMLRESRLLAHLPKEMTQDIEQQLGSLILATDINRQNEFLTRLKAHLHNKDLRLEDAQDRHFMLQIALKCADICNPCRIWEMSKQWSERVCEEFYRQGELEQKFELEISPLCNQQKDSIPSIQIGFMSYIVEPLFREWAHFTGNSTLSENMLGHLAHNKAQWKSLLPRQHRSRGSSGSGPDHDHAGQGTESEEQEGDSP
Description: PDE inhibition, recombinant PDE7B (SPA). In kind it is biochemical. Conditions: human isoenzyme.
From the text: as §1, §2, §3

A further test addresses T7, PDE8A (Homo sapiens, UniProt O60658).
T7 construct: made in house; host or cells: Sf9 (baculovirus, pFASTBAC)
Description: PDE inhibition, recombinant PDE8A (SPA). In kind it is biochemical. Conditions: human isoenzyme.
From the text: Recombinant PDE1C (GenBank/EMBL Accession Number: NM_005020, Loughney et al. J. Biol. Chem. 1996 271, 796-806), PDE2A (GenBank/EMBL Accession Number: NM_002599, Rosman et al. Gene 1997 191, 89-95), PDE3B (GenBank/EMBL Accession Number: NM_000922, Miki et al. Genomics 1996, 36, 476-485), PDE4B (GenBank/EMBL Accession Number: NM_002600, Obernolte et al. Gene. 1993, 129, 239-247), PDE5A (GenBank/EMBL Accession Number: NM_001083, Loughney et al. Gene 1998, 216, 139-147), PDE7B (GenBank/EMBL Accession Number: NM_018945, Hetman et al. Proc. Natl. Acad. Sci. U.S.A. 2000, 97, 472-476), PDE8A (GenBank/EMBL Accession Number: AF—056490, Fisher et al. Biochem. Biophys. Res. Commun. […]
The test substances are dissolved in 100% DMSO and serially diluted to determine their in vitro effect on PDE9A. […] The plates are then measured for 30 s per well in a Microbeta scintillation counter (Wallac Inc., Atlanta, Ga.). IC50 values are determined from the graphical plot of the substance concentration versus the percentage inhibition.
as §3

For test [1], the target named is T8, PDE9A (Homo sapiens, UniProt O76083). Kind of test: PDE inhibition, recombinant PDE9A (SPA). Type of test: biochemical. Also on record: made in house; host or cells: Sf9 (baculovirus, pFASTBAC). The note with it: human isoenzyme. The procedure:
The dilution of the PDE9A preparation is chosen so that less than 70% of the substrate is converted during the subsequent incubation (typical dilution: 1:10 000; dilution buffer: 50 mM Tris/HCl pH 7.5, 8.3 mM MgCl2, 1.7 mM EDTA, 0.2% BSA). […] The plates are then measured for 30 s per well in a Microbeta scintillation counter (Wallac Inc., Atlanta, Ga.). IC50 values are determined from the graphical plot of the substance concentration versus the percentage inhibition.

For the next test, the target named is T9, Murine PDE9A (Mus musculus, UniProt O70628).
T9 sequence (O70628 1-534): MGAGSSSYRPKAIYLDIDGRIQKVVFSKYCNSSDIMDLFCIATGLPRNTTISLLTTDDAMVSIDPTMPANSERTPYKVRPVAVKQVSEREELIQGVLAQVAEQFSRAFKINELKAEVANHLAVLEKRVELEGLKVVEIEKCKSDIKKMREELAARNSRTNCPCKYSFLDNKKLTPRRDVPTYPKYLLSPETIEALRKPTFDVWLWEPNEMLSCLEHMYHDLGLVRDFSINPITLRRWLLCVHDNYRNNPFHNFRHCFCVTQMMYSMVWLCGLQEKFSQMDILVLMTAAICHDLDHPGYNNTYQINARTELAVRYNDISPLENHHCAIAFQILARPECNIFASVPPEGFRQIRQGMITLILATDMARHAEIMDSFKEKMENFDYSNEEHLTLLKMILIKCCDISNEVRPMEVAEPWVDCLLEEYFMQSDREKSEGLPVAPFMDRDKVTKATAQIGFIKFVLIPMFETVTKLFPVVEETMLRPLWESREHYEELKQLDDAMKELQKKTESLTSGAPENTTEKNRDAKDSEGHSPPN
The note with it: concentrations below 200 μM; cited from earlier work.

For test [2], the target named is T8, PDE9A. Conditions: concentrations of up to 100 μM; cited from earlier work.

T8 sequence (O76083 whole entry): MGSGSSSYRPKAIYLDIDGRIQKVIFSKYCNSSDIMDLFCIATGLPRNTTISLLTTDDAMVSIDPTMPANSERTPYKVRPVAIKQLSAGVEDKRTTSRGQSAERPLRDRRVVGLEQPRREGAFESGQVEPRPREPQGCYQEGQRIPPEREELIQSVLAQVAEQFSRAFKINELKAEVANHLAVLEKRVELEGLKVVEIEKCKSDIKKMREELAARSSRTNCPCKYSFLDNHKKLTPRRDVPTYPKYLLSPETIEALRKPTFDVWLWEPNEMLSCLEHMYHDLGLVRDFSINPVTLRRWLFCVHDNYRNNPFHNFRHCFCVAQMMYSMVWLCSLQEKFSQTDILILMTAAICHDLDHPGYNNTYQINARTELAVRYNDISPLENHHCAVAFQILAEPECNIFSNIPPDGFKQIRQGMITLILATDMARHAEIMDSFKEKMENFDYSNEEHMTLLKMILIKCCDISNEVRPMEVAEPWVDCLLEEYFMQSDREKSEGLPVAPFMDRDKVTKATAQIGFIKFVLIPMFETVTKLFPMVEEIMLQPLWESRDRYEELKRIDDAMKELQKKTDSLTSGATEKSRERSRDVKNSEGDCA
T1 sequence (Q13370 whole entry): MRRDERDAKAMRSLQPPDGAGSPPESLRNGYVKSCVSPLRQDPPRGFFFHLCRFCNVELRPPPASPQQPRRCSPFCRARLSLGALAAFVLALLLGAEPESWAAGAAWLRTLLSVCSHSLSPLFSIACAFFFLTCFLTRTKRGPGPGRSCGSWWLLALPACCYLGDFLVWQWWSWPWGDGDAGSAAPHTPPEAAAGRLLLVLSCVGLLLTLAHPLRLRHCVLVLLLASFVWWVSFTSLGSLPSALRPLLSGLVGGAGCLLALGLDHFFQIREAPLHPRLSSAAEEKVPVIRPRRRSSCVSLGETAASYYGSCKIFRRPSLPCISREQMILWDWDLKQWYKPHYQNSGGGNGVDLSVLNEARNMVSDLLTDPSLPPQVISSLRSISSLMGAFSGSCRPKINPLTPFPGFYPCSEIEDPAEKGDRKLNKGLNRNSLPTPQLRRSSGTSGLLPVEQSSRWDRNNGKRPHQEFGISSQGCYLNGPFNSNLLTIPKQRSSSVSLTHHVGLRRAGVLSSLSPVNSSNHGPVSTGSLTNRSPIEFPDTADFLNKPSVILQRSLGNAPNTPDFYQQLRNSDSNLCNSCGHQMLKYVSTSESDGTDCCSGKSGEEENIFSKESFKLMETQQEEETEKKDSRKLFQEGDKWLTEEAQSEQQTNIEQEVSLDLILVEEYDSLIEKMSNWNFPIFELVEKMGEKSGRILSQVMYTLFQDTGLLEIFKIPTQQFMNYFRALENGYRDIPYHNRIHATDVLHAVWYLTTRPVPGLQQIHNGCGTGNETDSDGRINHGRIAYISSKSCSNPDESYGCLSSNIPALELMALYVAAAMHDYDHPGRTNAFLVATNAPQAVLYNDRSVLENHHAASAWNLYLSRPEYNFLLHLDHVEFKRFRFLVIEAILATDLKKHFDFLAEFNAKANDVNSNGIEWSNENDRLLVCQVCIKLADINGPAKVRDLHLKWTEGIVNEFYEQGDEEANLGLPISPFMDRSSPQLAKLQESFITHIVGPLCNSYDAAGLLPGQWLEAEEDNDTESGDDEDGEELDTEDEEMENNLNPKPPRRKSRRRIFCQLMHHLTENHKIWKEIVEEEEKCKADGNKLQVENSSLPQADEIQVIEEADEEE
Sequence of PDE4B (Q07343 212-736 limits assumed): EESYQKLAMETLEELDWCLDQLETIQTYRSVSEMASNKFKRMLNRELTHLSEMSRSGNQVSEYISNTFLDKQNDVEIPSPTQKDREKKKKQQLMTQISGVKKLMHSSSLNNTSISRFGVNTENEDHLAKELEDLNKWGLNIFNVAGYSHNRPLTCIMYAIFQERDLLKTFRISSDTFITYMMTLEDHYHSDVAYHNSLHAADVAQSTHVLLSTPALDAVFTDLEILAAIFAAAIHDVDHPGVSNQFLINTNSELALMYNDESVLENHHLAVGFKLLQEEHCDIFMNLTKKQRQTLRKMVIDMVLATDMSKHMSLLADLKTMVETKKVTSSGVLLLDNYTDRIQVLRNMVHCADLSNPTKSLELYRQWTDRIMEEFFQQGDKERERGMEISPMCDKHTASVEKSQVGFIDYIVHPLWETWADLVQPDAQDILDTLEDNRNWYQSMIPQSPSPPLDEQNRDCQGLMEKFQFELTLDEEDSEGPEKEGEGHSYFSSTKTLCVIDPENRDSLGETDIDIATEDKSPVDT

As for `COc1ccc(-c2ccccc2Cc2nc(N3CCC(CCO)CC3)c(C#N)c(=O)[nH]2)cn1` [Example 38, 4-[4-(2-Hydroxyethyl)piperidin-1-yl]-2-[2-(6-methoxypyridin-3-yl)benzyl]-6-oxo-1,6-dihydropyrimidine-5-carbonitrile], the IC50 at PDE3B, at PDE10A, on PDE11A, at PDE2A, on PDE4B and on PDE1C was more than 4 µM in each case. The concentration for half-maximal inhibition (IC50) at PDE7B is 2.2 µM.

On to `COc1ccc(-c2ccccc2Cc2nc(N3CCC[C@H]3CO)c(C#N)c(=O)[nH]2)cn1` [Example 112], for which the IC50 at PDE3B, on PDE10A, at PDE11A, at PDE2A, at PDE8A and on PDE4B was more than 4 µM each time. Moreover, the IC50 on PDE1C was more than 4 µM; at PDE7B it was more than 4 µM; on PDE9A [1], 0.005 µM.

As for `COc1ccc(-c2ccccc2Cc2nc(N3CCCC3)c(C#N)c(=O)[nH]2)cn1` [Example 113], the IC50 was more than 4 µM at PDE3B; more than 4 µM at PDE10A; 1.5 µM on PDE11A; more than 4 µM on PDE2A; more than 4 µM at PDE8A; more than 4 µM at PDE4B. Besides, the IC50 on PDE1C was more than 4 µM; on PDE7B it was more than 4 µM; at PDE9A [1] it was 0.015 µM.

`CC(C)Cn1c(=O)n(C)c(=O)c2[nH]cnc21` [IBMX]: at Murine PDE9A, the “inhibition of murine PDE9A” value was “not inhibited”. Also, the “inhibition on the isolated enzyme (human PDE9A)” value (“inhibition … (human PDE9A)” for short) on PDE9A [2] is “no inhibition”.

In the case of `CC(=O)Nc1ccc(-c2c[nH]c(=O)cn2)cc1` [SKF94120], the “inhibition … (human PDE9A)” value on PDE9A [2] is “no inhibition”.

For `OCCN(CCO)c1nc(N2CCCCC2)c2nc(N(CCO)CCO)nc(N3CCCCC3)c2n1` [dipyridamole], on PDE9A [2], the “inhibition … (human PDE9A)” value is reported as “no inhibition”.

Take `COc1ccc(C2CNC(=O)C2)cc1OC1CCCC1` (stereo not shown) [rolipram]: the “inhibition … (human PDE9A)” value on PDE9A [2] is recorded as “no inhibition”.

As to `CCOC(=O)C1=C[C@]2(CC)CCCN3CCc4c(n1c1ccccc41)[C@@H]32` [vinpocetine], on PDE9A [2], the “inhibition … (human PDE9A)” value is “no inhibition”.
